Results published in article PMC9464843, “Escitalopram co-prescription in anastrozole-treated breast cancer patients” (Northern Clinics of Istanbul, 2022).
Where two headings read alike, the source gives them in different places.

Tests used:
CYP2D6 [1] = conditions: cited from earlier work; for Ability to inhibit the CYP2D6 enzyme: SSRI antidepressants
[2] = breast cancer patients, cited from earlier work
clinical = conditions: female, human, in vivo
Description: (§2) A total of 24 operated post-menopausal breast cancer patients who were co-prescribed with escitalopram while taking anastrozole for at least 1 month were included in this study. The inclusion criteria were being on anastrozole treatment (1 mg/day) for at least 1 month (30±2 days), being younger than age of 75, having no implementation of radiotherapy or chemotherapy in the past 3 months before the study enrollment and having normal renal and hepatic functions.
(§3) Plasma anastrozole levels were measured twice, once before and once 1 month (30±2 days) after the onset of escitalopram by high-performance liquid chromatography (HPLC). The blood samples were centrifuged at 4500 g for 5 min within the 1 hour following the sampling and stored at -80°C until analysis. The plasma samples were extracted by using diethyl ether:dichloromethane (80:20, v:v) and high-performance liquid chromatography analyses were performed in Agilent Triple Quadrupole Mass Spectrometry system. A reverse phase C18 column (poroshell SB-C18, 2.7µm, 3.0 × 100 mm) was used within the system. The mobile phase was comprised of 5 mM ammonium acetate and acetonitrile at a ratio of 15:85 (v:v). Tolterodine was used as an internal standard. The external standard calibration interval was 0.5–50 ng/mL (r^2: 0.9930). Before analysis, 5 mL venous blood samples were collected into Na-EDTA-containing glass tubes and the blood samples were centrifuged at 4500 g for 5 min within an hour following the sampling and stored at -80°C until analysis.
(§4) The time between the last dose of anastrozole and blood sampling was recorded. As there was a variation between the last anastrozole dose and the blood sampling time, the maximum plasma concentrations (Cmax) were extrapolated by using the following pharmacokinetic formula:

serum estradiol = experiment: Serum estradiol levels before and after escitalopram; format: in vivo, human (post-menopausal breast cancer patients)
Description: (§1) Data on age, body mass index (BMI; kg/m^2), stage of tumor, previous anti-neoplastic treatments, and concomitant medications were collected in each patient at study enrollment. Blood samples were collected twice, before and 1-month after the onset of escitalopram treatment to analyze change in plasma anastrozole as well as estradiol levels under escitalopram treatment. Anastrozole levels were also analyzed with respect to baseline characteristics including age (≤57 years vs. >57 years), BMI (≤29.9 kg/m^2 vs. >29.9 kg/m^2), radiotherapy (left vs. right breast, the side indicates the affected organs, none), chemotherapy (applied vs. none), tamoxifen (applied vs. none), tumor stage, estradiol levels (≤10 pg/mL vs. >10 pg/mL), concomitant medications (present vs. none) and in patients discontinued versus continued 1-month escitalopram treatment.

[3] = female, human, in vivo
Description: as §2, §3, §4

[4] = cited from earlier work
CYP3A4 = system: CYP3A4; set-up: method as in PMID 11454728; conditions: cited from earlier work
adrenergic receptors = system: adrenergic receptors; set-up: method as in PMID 16266205; conditions: cited from earlier work
CYP2D6 [5] = system: CYP2D6; set-up: method as in PMID 11454728; conditions: cited from earlier work
[6] = system: depression-related symptoms; set-up: method as in PMID 22142651; conditions: escitalopram 5–20 mg/day; breast cancer patients; cited from earlier work
CYP 1A2 = system: CYP 1A2; set-up: method as in PMID 17375980; conditions: cited from earlier work
[7] = Completion / discontinuation of 1-month escitalopram treatment; format: in vivo, human (post-menopausal breast cancer patients); conditions: n=24
Description: as §1
Patients were on anastrozole (1 mg/day) for at least 1 month (30±2 days), while escitalopram was initiated with a dose of 10 mg/day for the first 7 days and then the dose was gradually elevated to 20 mg/day to enable tolerance.

CYP 3A4 = system: CYP 3A4; set-up: method as in PMID 17375980; conditions: cited from earlier work
[8] = Liver and kidney functions after escitalopram; format: in vivo, human (post-menopausal breast cancer patients); conditions: continuers n=17; 1 month escitalopram with anastrozole
cholinergic receptors = system: cholinergic receptors; set-up: method as in PMID 16266205; conditions: cited from earlier work
CYP 2C9 = system: CYP 2C9; set-up: method as in PMID 17375980; conditions: cited from earlier work
[9] = set-up: method as in earlier work; conditions: escitalopram 20 mg daily for 12 weeks; hot flushes; cited from earlier work
histaminergic receptors = system: histaminergic receptors; set-up: method as in PMID 16266205; conditions: cited from earlier work
CYP 2C19 = system: CYP 2C19; set-up: method as in PMID 17375980; conditions: cited from earlier work
CYP2C19 = system: CYP2C19; set-up: method as in PMID 11454728; conditions: cited from earlier work
[10] = under anastrozole 1 mg/day, n=24

Fc1ccc([C@@H]2CCNC[C@H]2COc2ccc3c(c2)OCO3)cc1 [paroxetine]
Ability to inhibit the CYP2D6 enzyme (CYP2D6 [1]): strong inhibition

CC(C)(C#N)c1cc(Cn2cncn2)cc(C(C)(C)C#N)c1 [Anastrozole, anastrozole]
Anastrozole concentrations, inter-individual range ([2]; past studies): 0.0 to 98.8 ng/mL
Anastrozole plasma steady-state concentration, mean ([2]; previous studies): 37.4 ng/mL
Anastrozole plasma steady-state concentration, median ([2]; previous studies): 32.2 ng/mL
concentration at 1 month (clinical; Plasma anastrozole levels, range): 0.0091 to 0.057 µg/mL
concentration at 1 month (clinical; Plasma anastrozole, post-escitalopram): 0.0404 µg/mL
Patients with serum estradiol levels >10 pg/mL (serum estradiol; [10]): 25%
Patients with serum estradiol levels ≤10 pg/mL (serum estradiol; [10]): 75%
Basal plasma anastrozole level [3]: 52.2 ng/mL
Plasma anastrozole, post-escitalopram [3]: 31.9 ng/mL
Plasma anastrozole, post-escitalopram ([3]; 1 month): 27.9 ng/mL

NC(=O)N1c2ccccc2C=Cc2ccccc21 [Carbamazepine]
Carbamazepine clearance, non-obese versus obese patients [4]: marginally higher
Carbamazepine clearance after major weight loss ([4]; six obese patients): significantly increased

CN(C)CCCC1(c2ccc(F)cc2)OCc2cc(C#N)ccc21 (stereo not drawn) [citalopram]
Ability to inhibit the CYP2D6 enzyme (CYP2D6 [1]): weak inhibition

CN(C)CCC[C@@]1(c2ccc(F)cc2)OCc2cc(C#N)ccc21 [escitalopram]
Share of CYP3A4 in bio-transformation of escitalopram (CYP3A4): 35%
Ability to inhibit the CYP2D6 enzyme (CYP2D6 [1]): weak inhibition
Inhibition of CYP 2D6 (CYP2D6 [1]): weak or negligible inhibition
Affinity for adrenergic receptors (adrenergic receptors): low affinity
Share of CYP2D6 in bio-transformation of escitalopram (CYP2D6 [5]): 28%
Time to amelioration of depression-related symptoms [6]: ≤ 1 week
Inhibition of CYP 1A2 (CYP 1A2): weak or negligible inhibition
Patients who completed the 1-month escitalopram treatment [7]: 70.8%
Patients who discontinued escitalopram within the 1st week of treatment ([7]; 10 mg/day first 7 days): 29.2%
Inhibition of CYP 3A4 (CYP 3A4): weak or negligible inhibition
Change in liver and kidney functions after escitalopram administration [8]: No significant change
Affinity for cholinergic receptors (cholinergic receptors): low affinity
Change in estradiol levels after escitalopram administration (serum estradiol; continuers n=17, 1 month escitalopram with anastrozole): no change
Inhibition of CYP 2C9 (CYP 2C9): weak or negligible inhibition
Patients who discontinued treatment due to side effects such as nausea and somnolence [9]: 14%
Affinity for histaminergic receptors (histaminergic receptors): low affinity
Inhibition of CYP 2C19 (CYP 2C19): weak or negligible inhibition
Share of CYP2C19 in bio-transformation of escitalopram (CYP2C19): 37%

CNCCC(Oc1ccc(C(F)(F)F)cc1)c1ccccc1 (stereo not drawn) [fluoxetine]
Ability to inhibit the CYP2D6 enzyme (CYP2D6 [1]): strong inhibition
